According to ChEMBL document CHEMBL4229339, “Total syntheses and stereochemical reassignments of mollenines A and B” (Bioorg Med Chem Lett, 2018):
Activity calls are given as the source filed them.

Tests used:
[1] = tested on: Escherichia coli; test: Antibacterial activity against Escherichia coli at 5 uM; type: functional, organism-based
[2] = tested on: Bacillus cereus; test: Antibacterial activity against Bacillus cereus at 5 uM; type: functional, organism-based
[3] = tested on: Candida albicans; test: Antifungal activity against Candida albicans at 5 uM; type: functional, organism-based
[4] = species: Homo sapiens; test: Cytotoxicity against human HeLa/Fucci cells at 5 uM; type: functional, cell-based

Measured: Activity

CC(C)=CCC12CC3C(=O)OC(CC(C)C)C(=O)N3C1Nc1ccccc12 (stereo in doubt; (+)-7)
inactive: all assays above

CC(C)=CC[C@@]12C[C@H]3C(=O)O[C@@H](CC(C)C)C(=O)N3[C@@H]1Nc1ccccc12
inactive: all assays above

CC(C)=CC[C@@]12C[C@H]3C(=O)O[C@H](CC(C)C)C(=O)N3[C@@H]1Nc1ccccc12
inactive: all assays above

CC(C)=CCC12CC3C(=O)OC(CC(C)C)C(=O)N3C1Nc1ccccc12 (single isomer, unassigned; (+))
inactive: all assays above

CC(C)=CC[C@@]12C[C@H]3C(=O)O[C@@H](CC(C)C)C(=O)N3[C@@H]1N(C=O)c1ccccc12
inactive: all assays above

CC(C)=CC[C@@]12C[C@@H]3C(=O)N[C@@H](CC(C)C)C(=O)N3[C@@H]1Nc1ccccc12
inactive: all assays above
